Structure (SMILES)	melting point [°C]
COc1cccc(-c2nn(Cc3oc4ccccc4c(=O)c3-c3cccc(F)c3)c3ncnc(N)c23)c1	175 to 178
COC(=O)C(=O)c1ccc(OCCOc2ccc3cccnc3c2)cc1	92 to 94
CC(C)(C)c1cc(N2CCCCC2=O)cc(C(C)(C)C)c1O	212 to 214
O=C1N(c2ccccc2)c2ccccc2C1(Cc1ccncc1)Cc1ccc([N+](=O)[O-])cc1 (stereo not given)	168 to 169
CNC(=O)[C@@H](NC(=O)Nc1n[nH]c(=S)s1)C(C)OCc1ccccc1 (stereo not given in full)	187 to 189
CCN(CC)CCCOc1ccc(NC(=O)c2ccccc2)cc1NC(=O)c1ccccc1	139 to 140
O=C(N1CCOCC1)N1Cc2c(-c3nc(C4CC4)cs3)ncn2-c2ccccc21	193 to 194
CS(=O)(=O)Oc1ccc2cc(CO)ccc2c1	96 to 98
O=C1CCOc2cc(OCc3ccccc3)c(F)cc21	155 to 156
O=S(=O)(Nc1ccc2c(OCc3cccc(-c4ccc(F)cc4)n3)cccc2c1)C(F)(F)F	173 to 174
c1cn2nc(SCCOC3CCCCO3)ccc2n1 (stereo not given)	60 to 62
Clc1ccc2c(c1)c(-c1ccccc1)cc1nncn12	265 to 266
CC(C)CCOc1ccc(-c2c(Cl)c(CN3C(=O)CCC3=O)nc3sc4c(c23)CCNC4)cc1	226 to 227
COC(=O)c1cc(N)nc(-c2ccc(Cl)c(F)c2F)n1	192 to 195
Cc1cc(Cl)ccc1NC(=S)NC(=O)c1ccccc1	148
CCCCCCCCCCCCCCOC(=O)c1ccc(OC)c(N)c1	54 to 56
O=C(O)c1cc2c([N+](=O)[O-])c(O)c(O)cc2oc1=O	> 300
CCOC(=O)n1c(C(=O)c2ccccc2)c(N)c2c(Cl)cccc21	118 to 119
N#Cc1nn(-c2c(Cl)cc(C(F)(F)F)cc2Cl)c(N)c1SC(F)(F)C(F)(F)F	134 to 136
COc1cc(CO)c(OC)cc1Cl	89 to 90

Structure (SMILES)	melting point [°C]
Cn1cnc2ncnn2c1=S	238 to 240
COc1ccc(C(=O)CC2CSCCC2=O)cc1 (stereo not given)	123 to 125
CC(=O)Nc1ccc2c(c1)C(=O)N(CCCl)CO2	133 to 135
CC(C)C1=NCCSC1=NOC(=O)N(C)SN1CCOCC1	127 to 128
Cc1[nH]n(C)c2nc(-c3ccncc3)nc(=O)c1-2	> 301
Cn1c(=O)c(-c2c(Cl)cccc2Cl)cc2cnc(N)cc21	239 to 240
CC1(C)CC(N)CC(C)(C)N1Cc1ccccc1	73 to 75
COc1ccc2nccc([C@@H]3CN(CCCNS(=O)(=O)c4ccc5c(c4)NC(=O)CS5)C(=O)O3)c2c1	135 to 140
CCC(C)C(NC(=O)OC)C(=O)NC(Cc1ccccc1)C(O)CN(Cc1ccc(-c2cncs2)cc1)NC(=O)C(NC(=O)OC)C(C)C (stereo not given)	202 to 204
O=S1(=O)NCc2ccccc2N1	178 to 180
CCCCc1nc(Sc2ccc(OC)cc2)c(C(=O)OCC)[nH]1	96
CC(C)(C)OC(=O)NC1CCN(C2CCN(Cc3ccccc3)CC2)C1 (stereo not given)	118
CC(SC1COC(c2ccc(C(=O)Nc3ccc(C#N)c(C#N)c3)cc2)OC1)C(O)(Cn1cncn1)c1ccc(F)cc1F (stereo not given)	182
CCOC(=O)C(CC(F)(F)CC(C)C1CCC2C3CC=C4CC(OC5CCCCO5)CCC4(C)C3CCC12C)C(=O)OCC (stereo not given)	79 to 80
COC(=O)c1[nH]c(C)c2c1CN=C(c1ccccc1F)c1cc(Cl)ccc1-2	228 to 231
c1ccc(COc2ccc(-c3cc4ccccc4[nH]3)cc2)cc1	251
Cc1cccc(C)c1NC(=O)CCCl	131
COc1ccc(N2CCN(c3c(C)c(C)c4c(c3C)CC(C)(CN)O4)CC2)cc1 (stereo not given)	134 to 137
O=C(Oc1ccc(Cl)cc1[N+](=O)[O-])c1ccccc1O	155 to 160
O=C1Nc2cc(Cl)ccc2C(=O)C1c1cccnc1 (stereo not given)	> 340

Reference: a melting point compilation (Tetko et al.; mined from patent text by program, amines drawn as free bases though some values may be those of a salt)
